Reference: patent US6926763B2, “Purine and isosteric antibacterial compounds” (GLSynthesis, Inc., priority 2002, dated 2005)
≈ marks a conversion by molar mass, not a printed value. Where two headings read alike, the source gives them in different places.

Columns and labels:
B.s. pol IIIE = B.s. pol IIIE (Bacillus subtilis, UniProt O34623); assay: biochemical; type: biochemical
Experimental: (§1) The ability of a test compound to inhibit the activity of DNA pol IIIC or pol IIIE enzymes can be tested by using a DNA polymerase assay as described, for example, in Barnes and Brown, Nucl. […] This rapid screening method can use natural or recombinant DNA pol III enzymes in a standard DNA polymerase activity assay. By including a test compound in a side-by-side assay with a control, the effect of the test compound on polymerase activity can be assessed.
(§2) DNA pol III activity was assayed as described in Barnes et al., Nucl.
(§3) Purified pol IIIC or pol IIIE was added to a buffered solution containing Mg^2+, DTT, glycerol, nicked calf thymus DNA, saturating concentrations of dATP, dCTP, dTTP and [^3H]-dTTP. Reaction mixtures were incubated at 30° C. for 10 min, quenched and filtered, and radioactivity in the acid-insoluble material measured by scintillation counting. Experiments were done in triplicate. Inhibitors were assayed by addition of several dilutions of a stock solution of inhibitor (DMSO or water, depending on solubility) before enzyme addition. […] The truncated assay, i.e., exclusion of the competitive substrate dGTP allows for the direct determination of apparent inhibitor constants (Ki) in this assay system.

B.s. pol IIIC = B.s. pol IIIC (Bacillus subtilis, UniProt P13267); assay: biochemical; type: biochemical
B.s. pol IIIC, sequence (P13267 whole entry): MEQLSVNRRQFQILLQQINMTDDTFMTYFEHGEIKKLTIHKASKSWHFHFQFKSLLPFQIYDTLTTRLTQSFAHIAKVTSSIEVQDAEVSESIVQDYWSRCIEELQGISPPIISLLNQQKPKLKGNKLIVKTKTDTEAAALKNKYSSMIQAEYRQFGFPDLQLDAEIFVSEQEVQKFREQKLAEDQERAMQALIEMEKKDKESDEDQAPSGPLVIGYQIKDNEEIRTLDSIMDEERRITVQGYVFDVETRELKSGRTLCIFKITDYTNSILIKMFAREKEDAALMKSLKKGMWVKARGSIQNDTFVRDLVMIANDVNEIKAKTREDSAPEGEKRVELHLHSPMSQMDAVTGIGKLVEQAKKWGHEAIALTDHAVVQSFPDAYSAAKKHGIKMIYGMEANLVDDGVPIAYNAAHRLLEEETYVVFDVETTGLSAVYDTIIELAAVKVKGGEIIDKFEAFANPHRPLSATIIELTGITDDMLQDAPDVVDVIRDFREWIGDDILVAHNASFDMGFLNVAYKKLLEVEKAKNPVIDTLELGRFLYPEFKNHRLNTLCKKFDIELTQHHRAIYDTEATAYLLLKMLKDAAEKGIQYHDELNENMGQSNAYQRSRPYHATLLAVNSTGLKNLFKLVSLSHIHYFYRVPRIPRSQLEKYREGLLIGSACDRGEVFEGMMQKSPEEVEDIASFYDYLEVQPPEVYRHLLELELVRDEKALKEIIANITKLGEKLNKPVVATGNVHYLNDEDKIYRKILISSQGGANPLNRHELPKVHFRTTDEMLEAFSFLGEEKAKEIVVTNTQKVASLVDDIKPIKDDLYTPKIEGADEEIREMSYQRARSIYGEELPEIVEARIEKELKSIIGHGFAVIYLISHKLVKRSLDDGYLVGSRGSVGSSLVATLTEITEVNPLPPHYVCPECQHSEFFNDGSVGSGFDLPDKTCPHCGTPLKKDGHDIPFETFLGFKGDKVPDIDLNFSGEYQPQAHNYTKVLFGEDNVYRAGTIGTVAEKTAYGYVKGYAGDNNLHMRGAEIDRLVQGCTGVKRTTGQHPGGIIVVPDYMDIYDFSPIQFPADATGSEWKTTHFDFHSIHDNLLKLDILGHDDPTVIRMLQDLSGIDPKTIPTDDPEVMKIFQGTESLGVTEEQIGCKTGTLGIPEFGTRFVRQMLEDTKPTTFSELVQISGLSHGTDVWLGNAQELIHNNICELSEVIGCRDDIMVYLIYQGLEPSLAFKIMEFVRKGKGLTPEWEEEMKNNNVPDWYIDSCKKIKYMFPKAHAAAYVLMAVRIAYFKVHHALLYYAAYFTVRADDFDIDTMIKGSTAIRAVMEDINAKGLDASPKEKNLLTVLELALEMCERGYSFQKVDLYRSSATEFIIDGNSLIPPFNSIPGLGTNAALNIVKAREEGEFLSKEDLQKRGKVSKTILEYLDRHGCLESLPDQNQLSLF
Experimental: as §1, §2, §3

S.a. (Smith) = assay: Inhibition of bacterial growth (agar plate MIC), S.a. (Smith); type: cell-based, Staphylococcus aureus; conditions: agar plates, 37° C., 24 hours; for MIC: Staphylococcus aureus
Experimental: (§4) Antimicrobial efficacy may be determined by standard methods of microbial culture in growth medium or on plates of agar supplemented with appropriate growth media. For example, microbes, e.g., mycoplasmata or Gram-positive or Gram-negative bacteria, are grown in the presence of serial dilutions of compounds in an appropriate vehicle, and, after a suitable period of growth, the microbial density is measured by visual or instrumental means. The concentration of compound at which no growth occurs is the minimum inhibitory concentration (MIC) of the compound. Test compounds with an appropriate level of growth inhibition are good candidate therapeutics for further evaluation.
(§5) Each compound was assayed against a panel of Gram-positive Bacilli, Enterococci, and Staphylococci, and Gram-negative Escherichia coli, grown in appropriate plate media solidified with 1.3% agar-agar. […] One tenth mL of diluted bacteria containing 500-1000 colony-forming units (CFU) were plated and spread, and the plates were incubated at 37° C. for 24 hours. MIC (minimum inhibitory concentration) was equivalent to the lowest concentration at which growth, i.e. colony formation, was not observed.

Enterococcus fecium = assay: Inhibition of bacterial growth (agar plate MIC), E. fecium; type: cell-based; conditions: agar plates, 37° C., 24 hours; for MIC: Enterococcus
Experimental: as §4, §5

Bacillus subtilis = assay: Inhibition of bacterial growth (agar plate MIC), B.s.; type: cell-based; conditions: agar plates, 37° C., 24 hours; for MIC: Bacillus subtilis
Experimental: as §4, §5

Enterococcus fecalis = assay: Inhibition of bacterial growth (agar plate MIC), E. fecalis; type: cell-based; conditions: agar plates, 37° C., 24 hours; for MIC: Enterococcus
Experimental: as §4, §5

E.c. pol IIIE = E.c. pol IIIE (Escherichia coli, UniProt P10443); assay: biochemical
E.c. pol IIIE, sequence (P10443 whole entry): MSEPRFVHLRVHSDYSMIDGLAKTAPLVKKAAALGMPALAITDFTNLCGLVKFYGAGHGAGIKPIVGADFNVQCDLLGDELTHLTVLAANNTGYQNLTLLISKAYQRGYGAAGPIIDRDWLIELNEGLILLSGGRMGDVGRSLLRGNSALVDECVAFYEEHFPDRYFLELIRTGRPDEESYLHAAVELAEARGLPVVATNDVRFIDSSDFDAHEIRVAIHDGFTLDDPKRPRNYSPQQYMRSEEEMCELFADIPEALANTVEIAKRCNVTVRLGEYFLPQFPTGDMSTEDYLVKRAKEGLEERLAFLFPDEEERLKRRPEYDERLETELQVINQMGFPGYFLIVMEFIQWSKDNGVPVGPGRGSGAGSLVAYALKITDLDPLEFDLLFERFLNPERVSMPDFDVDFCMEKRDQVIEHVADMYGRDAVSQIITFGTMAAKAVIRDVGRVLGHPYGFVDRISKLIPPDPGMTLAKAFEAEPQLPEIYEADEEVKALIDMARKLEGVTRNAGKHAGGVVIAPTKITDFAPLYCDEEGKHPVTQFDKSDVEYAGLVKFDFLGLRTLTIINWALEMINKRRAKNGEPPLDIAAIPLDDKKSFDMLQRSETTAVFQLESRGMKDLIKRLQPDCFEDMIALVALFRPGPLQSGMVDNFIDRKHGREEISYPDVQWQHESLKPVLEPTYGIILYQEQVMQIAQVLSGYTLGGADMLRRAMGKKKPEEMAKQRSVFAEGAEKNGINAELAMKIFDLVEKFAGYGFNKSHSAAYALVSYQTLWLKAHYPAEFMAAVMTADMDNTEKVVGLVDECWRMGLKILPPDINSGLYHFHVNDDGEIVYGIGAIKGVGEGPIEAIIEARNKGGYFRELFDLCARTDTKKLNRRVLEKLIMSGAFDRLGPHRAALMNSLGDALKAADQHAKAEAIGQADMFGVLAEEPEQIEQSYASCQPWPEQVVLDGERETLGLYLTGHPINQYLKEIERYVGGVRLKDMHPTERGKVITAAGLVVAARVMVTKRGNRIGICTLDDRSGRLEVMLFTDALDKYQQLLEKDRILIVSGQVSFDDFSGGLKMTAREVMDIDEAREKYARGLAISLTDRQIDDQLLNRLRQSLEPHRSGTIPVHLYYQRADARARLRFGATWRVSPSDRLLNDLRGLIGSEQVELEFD
Experimental: as §1, §2, §3

MRSA (B42876) = assay: Inhibition of bacterial growth (agar plate MIC), MRSA (B42876); type: cell-based, methicillin-resistant S.a.; conditions: agar plates, 37° C., 24 hours; for MIC: Staphylococcus aureus, MRSA
Experimental: as §4, §5

[1] = test system: vancomycin-resistant E. fecium; assay: Inhibition of bacterial growth (agar plate MIC), VRE; type: cell-based, Enterococcus fecium; conditions: agar plates, 37° C., 24 hours; for MIC: Enterococcus, VRE
Experimental: as §4, §5

Staphylococcus aureus = assay: Inhibition of bacterial growth (agar plate MIC), S.a.; type: cell-based; conditions: agar plates, 37° C., 24 hours; for MIC: Staphylococcus aureus
Experimental: as §4, §5

in vitro = in vitro ADME; conditions: human, Caco-2
Description: Table 2 summarizes the results of cell membrane permeability assays of representative compounds of the invention. The assay utilizes CaCo2 cell culture monolayers, described by Artursson and Kalsson, Biochem. Biophys. Res.

[2] = truncated assay without dGTP, apparent Ki, read-out: Ki, B.s. pol IIIC
[3] = truncated assay without dGTP, apparent Ki, read-out: Ki, B.s. pol IIIE
[4] = truncated assay without dGTP, apparent Ki

B.s. pol IIIE, sequence (O34623 whole entry): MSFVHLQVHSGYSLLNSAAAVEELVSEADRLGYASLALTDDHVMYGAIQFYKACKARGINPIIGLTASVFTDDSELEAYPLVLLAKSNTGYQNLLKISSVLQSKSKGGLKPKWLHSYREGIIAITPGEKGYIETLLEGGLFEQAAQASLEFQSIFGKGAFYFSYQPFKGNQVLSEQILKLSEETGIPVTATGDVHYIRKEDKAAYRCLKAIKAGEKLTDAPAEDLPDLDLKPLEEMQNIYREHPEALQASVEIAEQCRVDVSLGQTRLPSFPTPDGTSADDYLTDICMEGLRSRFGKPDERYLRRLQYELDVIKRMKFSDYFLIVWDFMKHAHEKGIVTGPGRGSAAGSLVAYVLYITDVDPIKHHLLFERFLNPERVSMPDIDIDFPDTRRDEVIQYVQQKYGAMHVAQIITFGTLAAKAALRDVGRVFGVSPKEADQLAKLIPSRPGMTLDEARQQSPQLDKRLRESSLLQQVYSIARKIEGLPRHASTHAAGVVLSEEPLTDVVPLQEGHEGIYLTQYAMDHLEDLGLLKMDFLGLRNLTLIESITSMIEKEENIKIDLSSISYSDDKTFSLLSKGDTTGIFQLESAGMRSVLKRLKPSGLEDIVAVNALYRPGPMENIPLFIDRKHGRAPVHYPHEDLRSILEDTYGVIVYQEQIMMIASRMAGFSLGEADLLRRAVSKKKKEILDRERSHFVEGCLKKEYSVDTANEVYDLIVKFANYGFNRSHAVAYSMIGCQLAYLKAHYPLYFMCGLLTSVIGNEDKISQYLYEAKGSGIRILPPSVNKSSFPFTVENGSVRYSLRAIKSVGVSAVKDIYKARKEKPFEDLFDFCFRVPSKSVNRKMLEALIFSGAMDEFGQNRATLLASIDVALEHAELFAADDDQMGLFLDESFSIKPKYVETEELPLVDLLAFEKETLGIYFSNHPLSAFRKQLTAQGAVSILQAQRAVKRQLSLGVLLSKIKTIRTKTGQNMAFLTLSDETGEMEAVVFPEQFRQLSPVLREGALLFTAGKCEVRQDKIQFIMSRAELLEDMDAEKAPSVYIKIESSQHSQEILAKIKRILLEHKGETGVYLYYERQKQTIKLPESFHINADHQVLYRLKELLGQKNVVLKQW

SMILES | MIC (Enterococcus fecium) | MIC (Bacillus subtilis) | MIC (Enterococcus fecalis) | MIC (MRSA (B42876)) | Ki (B.s. pol IIIC; [2]) | Papp (in vitro) | further results
COCCCCn1cnc2cc(NCc3ccc(Cl)c(Cl)c3)[nH]c(=O)c21 [Compound 2, 2-(3,4-Dichlorobenzylamino)-6-oxo-7-(4-methoxybutyl)-3-deazapurine] | 5 µg/mL (≈ 12.6 µM) | 0.625 µg/mL (≈ 1.58 µM) | 5 µg/mL (≈ 12.6 µM) |  |  |  | Ki (B.s. pol IIIE): 370 nM; Ki (B.s. pol IIIC): 190 nM; MIC (S.a. (Smith)): 3.75 µg/mL (≈ 9.49 µM); Ki (E.c. pol IIIE): 56000 nM
CC(=O)OCCCCn1cnc2nc(NCc3ccc(Cl)c(Cl)c3)[nH]c(=O)c21 [Compound 7, 7-(4-Acetoxybutyl)-2-(3,4-dichlorobenzylamino)-6-oxopurine] | 2.5 µg/mL (≈ 5.89 µM) | 5 µg/mL (≈ 11.8 µM) | 2.5 µg/mL (≈ 5.89 µM) | 2.5 µg/mL (≈ 5.89 µM) | 66 nM |  | MIC (S.a. (Smith)): 2.5 µg/mL (≈ 5.89 µM); MIC [1]: 5 µg/mL (≈ 11.8 µM); MIC (Staphylococcus aureus): 5 µg/mL (≈ 11.8 µM)
CCc1cc(Nc2nc3ncn(CCCCCO)c3c(=O)[nH]2)ccc1C [Compound 20, 7-(5-Hydroxypentyl)-2-(3-ethyl-4-methylphenylamino)-6-oxopurine] | 10 µg/mL (≈ 28.1 µM) |  | 10 µg/mL (≈ 28.1 µM) | 20 µg/mL (≈ 56.3 µM) | 280 nM | 0.62 ×10⁻⁶ cm/s | 
O=c1[nH]c(NCc2ccc(Cl)c(Cl)c2)nc2ncn(CCCCCI)c12 [Compound 13, 7-(5-Iodopentyl)-2-(3,4-dichlorobenzylamino)-6-oxopurine] | 2.5 µg/mL (≈ 4.94 µM) | 1.4 µg/mL (≈ 2.77 µM) | 2.5 µg/mL (≈ 4.94 µM) | 1.25 µg/mL (≈ 2.47 µM) |  |  | Ki (B.s. pol IIIE): 88 nM; Ki (B.s. pol IIIC): 70 nM; MIC (S.a. (Smith)): 3.7 µg/mL (≈ 7.31 µM); Ki (E.c. pol IIIE): 47000 nM; MIC [1]: 2.5 µg/mL (≈ 4.94 µM); MIC (Staphylococcus aureus): 3.7 µg/mL (≈ 7.31 µM)
O=c1[nH]c(NCc2ccc(Cl)c(Cl)c2)cc2ncn(CCCCCN3CCOCC3)c12 [Compound 5, 2-(3,4-Dichlorobenzylamino)-6-oxo-7-(5-morpholinylpentyl)-3-deazapurine] |  |  |  |  | 100 nM |  | MIC, MRSA (B42876) (MRSA (B42876)): 20 µg/mL (≈ 43.1 µM); Ki (B.s. pol IIIE; [3]): 290 nM; MIC, S.a. (Smith) (S.a. (Smith)): 20 µg/mL (≈ 43.1 µM); MIC, E. fecium (Enterococcus fecium): 20 µg/mL (≈ 43.1 µM); MIC, B.s. (Bacillus subtilis): 10 µg/mL (≈ 21.5 µM); MIC, E. fecalis (Enterococcus fecalis): 20 µg/mL (≈ 43.1 µM); MIC, VRE [1]: 15 µg/mL (≈ 32.3 µM); MIC, S.a. (Staphylococcus aureus): 20 µg/mL (≈ 43.1 µM)
O=c1[nH]c(NCc2ccc(Cl)c(Cl)c2)nc2ncn(CCCCN3CCOCC3)c12 [Compound 10, 7-[4-(N-Morpholinyl)butyl]-2-(3,4-dichlorobenzylamino)-6-oxopurine] | 10 µg/mL (≈ 22.2 µM) |  | 10 µg/mL (≈ 22.2 µM) |  | 51 nM | 0.01 ×10⁻⁶ cm/s | MIC (Staphylococcus aureus): 20 µg/mL (≈ 44.3 µM)
O=c1[nH]c(NCc2ccc(Cl)c(Cl)c2)nc2ncn(CCCCO)c12 [Compound 8, 7-(4-Hydroxybutyl)-2-(3,4-dichlorobenzylamino)-6-oxopurine] | 7.5 µg/mL (≈ 19.6 µM) | 15 µg/mL (≈ 39.2 µM) | 10 µg/mL (≈ 26.2 µM) | 30 µg/mL (≈ 78.5 µM) | 190 nM |  | MIC (S.a. (Smith)): 25 µg/mL (≈ 65.4 µM)
O=c1[nH]c(NCc2ccc(Cl)c(Cl)c2)cc2ncn(CCCCN3CCOCC3)c12 [Compound 4, 2-(3,4-Dichlorobenzylamino)-6-oxo-7-(4-morpholinylbutyl)-3-deazapurine] |  |  |  |  | 94 nM |  | MIC, MRSA (B42876) (MRSA (B42876)): 20 µg/mL (≈ 44.4 µM); Ki (B.s. pol IIIE; [3]): 200 nM; MIC, S.a. (Smith) (S.a. (Smith)): 10 µg/mL (≈ 22.2 µM); MIC, E. fecium (Enterococcus fecium): 15 µg/mL (≈ 33.3 µM); MIC, B.s. (Bacillus subtilis): 7.5 µg/mL (≈ 16.7 µM); MIC, E. fecalis (Enterococcus fecalis): 20 µg/mL (≈ 44.4 µM); MIC, VRE [1]: 10 µg/mL (≈ 22.2 µM); MIC, S.a. (Staphylococcus aureus): 20 µg/mL (≈ 44.4 µM)
CCc1cc(Nc2cc3ncn(CCCCOC)c3c(=O)[nH]2)ccc1C [Compound 15, 2-(3-Ethyl-4-methylphenylamino)-6-oxo-7-(4-methoxybutyl)-3-deazapurine] | 10 µg/mL (≈ 28.2 µM) | 2.5 µg/mL (≈ 7.05 µM) | 10 µg/mL (≈ 28.2 µM) | 10 µg/mL (≈ 28.2 µM) |  |  | Ki, B.s. pol IIIE (B.s. pol IIIE; [4]): inact; Ki (B.s. pol IIIC): 1500 nM
CC(C)NCC(O)COc1cccc2ccccc12 (centres unmarked) [Propranolol, reference compound] |  |  |  |  |  | 19.3 ×10⁻⁶ cm/s | 
CCc1cc(Nc2nc3ncn(CCCCO)c3c(=O)[nH]2)ccc1C [Compound 18, 7-(4-Hydroxybutyl)-2-(3-ethyl-4-methylphenylamino)-6-oxopurine] | 20 µg/mL (≈ 58.6 µM) | 15 µg/mL (≈ 43.9 µM) | 20 µg/mL (≈ 58.6 µM) | 30 µg/mL (≈ 87.9 µM) | 470 nM | 0.56 ×10⁻⁶ cm/s | Ki, B.s. pol IIIE (B.s. pol IIIE; [4]): inact; MIC (S.a. (Smith)): 40 µg/mL (≈ 117 µM)
CCc1cc(Nc2nc3ncn(CCCCCOC)c3c(=O)[nH]2)ccc1C [Compound 22, 7-(5-Methoxypentyl)-2-(3-ethyl-4-methylphenylamino)-6-oxopurine] | 10 µg/mL (≈ 27.1 µM) | 1.25 µg/mL (≈ 3.38 µM) | 5 µg/mL (≈ 13.5 µM) |  |  |  | Ki (B.s. pol IIIE): 394000 nM; Ki (B.s. pol IIIC): 260 nM
CC(=O)OCCCCCn1cnc2nc(NCc3ccc(Cl)c(Cl)c3)[nH]c(=O)c21 [Compound 11, 7-(5-Acetoxypentyl)-2-(3,4-dichlorobenzylamino)-6-oxopurine] | 1.25 µg/mL (≈ 2.85 µM) |  | 1.25 µg/mL (≈ 2.85 µM) |  | 52 nM |  | MIC (Staphylococcus aureus): 2.5 µg/mL (≈ 5.7 µM)
CCc1cc(Nc2nc3ncn(CCCCCN4CCC(O)(c5ccc(Cl)c(C(F)(F)F)c5)CC4)c3c(=O)[nH]2)ccc1C [Compound 23, 7-{5-[4-hydroxy-4-(3-trifluoromethyl-4-chlorophenyl)piperidyl]pentyl}-2-(3-ethyl-4-methylphenylamino)-6-oxopurine] |  |  |  |  | 130 nM |  | MIC, MRSA (B42876) (MRSA (B42876)): 5 µg/mL (≈ 8.1 µM); Ki (B.s. pol IIIE; [3]): 38000 nM; MIC, S.a. (Smith) (S.a. (Smith)): 5 µg/mL (≈ 8.1 µM); MIC, E. fecium (Enterococcus fecium): 5 µg/mL (≈ 8.1 µM); MIC, B.s. (Bacillus subtilis): 2.5 µg/mL (≈ 4.05 µM); MIC, E. fecalis (Enterococcus fecalis): 5 µg/mL (≈ 8.1 µM); MIC, VRE [1]: 5 µg/mL (≈ 8.1 µM); MIC, S.a. (Staphylococcus aureus): 5 µg/mL (≈ 8.1 µM)
CNC(=C[N+](=O)[O-])NCCSCc1ccc(CN(C)C)o1 [Ranitidine, reference compound] |  |  |  |  |  | 0.27 ×10⁻⁶ cm/s | 
CCc1cc(Nc2nc3ncn(CCCCCOC(C)=O)c3c(=O)[nH]2)ccc1C [Compound 19, 7-(5-Acetoxypentyl)-2-(3-ethyl-4-methylphenylamino)-6-oxopurine] |  |  |  |  |  | 0.58 ×10⁻⁶ cm/s | 
O=c1[nH]c(NCc2ccc(Cl)c(Cl)c2)nc2ncn(CCCCCO)c12 [Compound 12, 7-(5-Hydroxypentyl)-2-(3,4-dichlorobenzylamino)-6-oxopurine] | 10 µg/mL (≈ 25.2 µM) |  | 5 µg/mL (≈ 12.6 µM) |  | 52 nM |  | MIC (Staphylococcus aureus): 20 µg/mL (≈ 50.5 µM)
